For 58 compounds, IC50 results are on record in the Kinase Knowledgebase extract (Sharma et al. 2016).

Molecules are shown by their SMILES.

Sequence of EGFR (human) (P00533 whole entry, looked up): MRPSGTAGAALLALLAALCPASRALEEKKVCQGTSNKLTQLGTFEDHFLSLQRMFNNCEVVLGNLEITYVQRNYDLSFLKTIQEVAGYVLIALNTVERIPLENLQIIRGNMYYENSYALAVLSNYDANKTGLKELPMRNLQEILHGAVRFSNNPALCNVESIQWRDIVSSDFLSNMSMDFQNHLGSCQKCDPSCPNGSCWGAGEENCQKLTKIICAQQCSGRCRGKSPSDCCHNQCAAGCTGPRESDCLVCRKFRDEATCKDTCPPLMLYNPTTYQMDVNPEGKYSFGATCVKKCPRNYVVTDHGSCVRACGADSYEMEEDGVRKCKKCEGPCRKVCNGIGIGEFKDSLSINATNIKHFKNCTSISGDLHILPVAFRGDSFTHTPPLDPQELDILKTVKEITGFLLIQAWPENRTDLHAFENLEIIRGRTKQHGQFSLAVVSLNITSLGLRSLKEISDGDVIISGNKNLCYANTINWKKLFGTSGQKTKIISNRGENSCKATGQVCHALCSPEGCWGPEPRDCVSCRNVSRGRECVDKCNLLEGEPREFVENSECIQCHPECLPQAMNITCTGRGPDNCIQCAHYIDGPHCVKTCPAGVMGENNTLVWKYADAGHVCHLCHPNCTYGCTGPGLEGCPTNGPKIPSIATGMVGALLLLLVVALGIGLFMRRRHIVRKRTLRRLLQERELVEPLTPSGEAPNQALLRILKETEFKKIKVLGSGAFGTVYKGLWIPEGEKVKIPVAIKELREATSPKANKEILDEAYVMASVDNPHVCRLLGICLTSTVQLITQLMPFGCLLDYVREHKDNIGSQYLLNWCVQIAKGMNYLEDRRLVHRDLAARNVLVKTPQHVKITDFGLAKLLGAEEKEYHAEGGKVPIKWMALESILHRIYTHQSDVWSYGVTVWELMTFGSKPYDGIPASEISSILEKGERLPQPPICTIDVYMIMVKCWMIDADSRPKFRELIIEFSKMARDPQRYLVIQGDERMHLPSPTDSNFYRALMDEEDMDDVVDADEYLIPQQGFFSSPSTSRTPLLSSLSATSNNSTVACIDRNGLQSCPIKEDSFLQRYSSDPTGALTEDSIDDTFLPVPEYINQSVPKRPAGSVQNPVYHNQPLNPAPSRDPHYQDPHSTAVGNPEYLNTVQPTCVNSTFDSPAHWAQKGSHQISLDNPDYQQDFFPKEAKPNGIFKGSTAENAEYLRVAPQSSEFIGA

One assay addresses EGFR (human) (UniProt P00533). To be noted: kb.
What is called IC50 is the concentration needed to halve the response being measured. A low value points to inhibition by little substance. Take `COC(=O)N1CCC(Nc2ncc3ncnc(Nc4ccc(F)c(Cl)c4)c3n2)CC1`: the IC50 was in the range of 100 to 1000 nM.

Consider `Nc1c(Cl)cc(Nc2ncnc3cnc(N[C@H]4CC[C@H](C(=O)N5CCOCC5)CC4)nc23)cc1Cl`, for which the IC50 fell in the range of 100 to 1000 nM.

In turn, `Fc1ccc(Nc2ncnc3cnc(N4CCC(C5CCNCC5)CC4)nc23)cc1Cl` came in with an IC50 of 100 to 1000 nM.

Regarding `Nc1c(Cl)cc(Nc2ncnc3cnc(N[C@H]4CC[C@H](C(=O)O)CC4)nc23)cc1Cl`, the IC50 is 100 to 1000 nM.

Turning to `CC(CN1CCCCC1)Nc1ncc2ncnc(Nc3ccc(F)c(Cl)c3)c2n1` (stereo not drawn), the IC50 was in the range of 100 to 1000 nM.

In turn, `Nc1c(Cl)cc(Nc2ncnc3cnc(N[C@H]4CC[C@H](C(=O)N5CCCC5)CC4)nc23)cc1Cl` yielded an IC50 of 100 to 1000 nM.

As for `NCC1CCN(c2ncc3ncnc(Nc4ccc(F)c(Cl)c4)c3n2)CC1`, the IC50 fell in the range of 100 to 1000 nM.

In turn, `CCN(CC)CC(C)Nc1ncc2ncnc(Nc3ccc(F)c(Cl)c3)c2n1` (stereo not drawn) returned an IC50 of 100 to 1000 nM.

Take `NCC1CCC(CNc2ncc3ncnc(Nc4ccc(F)c(Cl)c4)c3n2)CC1` (stereo not drawn): the IC50 was 100 to 1000 nM.

On to `Fc1ccc(Nc2ncnc3cnc(NC4CN5CCC4CC5)nc23)cc1Cl` (stereo not drawn), for which the IC50 lay within 100 to 1000 nM.

In the next assay the target is EGFR (murine) (UniProt P00533). The conditions noted are these: f/l herc cells.
Sequence of EGFR (murine) (P00533 whole entry, looked up): as above
Consider `Fc1ccc(Nc2ncnc3cnc(NC4CCCNCC4)nc23)cc1Cl` (stereo not drawn), for which the IC50 was more than 1 nM.

In the case of `CC(N)CNc1ncc2ncnc(Nc3ccc(F)c(Cl)c3)c2n1` (stereo not drawn), the IC50 is more than 10 nM.

With `NC1CCCN(c2ncc3ncnc(Nc4ccc(F)c(Cl)c4)c3n2)CC1` (stereo not drawn), the IC50 is more than 1 nM.

`OCc1cccc(Nc2ncnc3cnc(N[C@H]4CC[C@H](O)CC4)nc23)c1`: the IC50 was more than 1 nM.

The compound `COC(=O)N1CCC(Nc2ncc3ncnc(Nc4ccc(F)c(Cl)c4)c3n2)CC1` yielded an IC50 of more than 10 nM.

The compound `CN1CCC(N(C)c2ncc3ncnc(Nc4ccc(F)c(Cl)c4)c3n2)CC1` showed an IC50 of 10 nM.

`COC(=O)[C@H]1CC[C@H](Nc2ncc3ncnc(Nc4ccc(F)c(Cl)c4)c3n2)CC1` displayed an IC50 of more than 10 nM.

As to `NCCCCNc1ncc2ncnc(Nc3ccc(F)c(Cl)c3)c2n1`, the IC50 was more than 10 nM.

The compound `O=C(N[C@H]1CC[C@H](CNc2ncc3ncnc(Nc4ccc(F)c(Cl)c4)c3n2)CC1)OCc1ccccc1` returned an IC50 of more than 10 nM.

`Nc1c(Cl)cc(Nc2ncnc3cnc(N[C@H]4CC[C@H](C(=O)N5CCOCC5)CC4)nc23)cc1Cl`: the IC50 is more than 1 nM.

`Fc1ccc(Nc2ncnc3cnc(N4CCC(C5CCNCC5)CC4)nc23)cc1Cl` registered an IC50 of more than 1 nM.

Consider `CC(C)(N)CNc1ncc2ncnc(Nc3ccc(F)c(Cl)c3)c2n1`, for which the IC50 was more than 10 nM.

In the case of `Fc1ccc(Nc2ncnc3cnc(NC4CCCN(Cc5ccccc5)CC4)nc23)cc1Cl` (stereo not drawn), the IC50 was more than 1 nM.

Turning to `Nc1c(Cl)cc(Nc2ncnc3cnc(N[C@H]4CC[C@H](C(=O)O)CC4)nc23)cc1Cl`, the IC50 was more than 1 nM.

`NCC1CCCC(CNc2ncc3ncnc(Nc4ccc(F)c(Cl)c4)c3n2)C1` (stereo not drawn) displayed an IC50 of more than 1 nM.

Turning to `Fc1ccc(Nc2ncnc3cnc(NCC4CCNCC4)nc23)cc1Cl`, the IC50 was more than 20 nM.

In the case of `COC(=O)NC1CCN(c2ncc3ncnc(Nc4ccc(F)c(Cl)c4)c3n2)CC1`, the IC50 is more than 10 nM.

Take `CC(CN1CCCCC1)Nc1ncc2ncnc(Nc3ccc(F)c(Cl)c3)c2n1` (stereo not drawn): the IC50 was more than 1 nM.

`NCCCCCNc1ncc2ncnc(Nc3ccc(F)c(Cl)c3)c2n1` showed an IC50 of more than 1 nM.

In turn, `O[C@H]1CC[C@H](Nc2ncc3ncnc(Nc4ccc(-c5ccccc5)cc4)c3n2)CC1` registered an IC50 of more than 10 nM.

The compound `Nc1c(Cl)cc(Nc2ncnc3cnc(N[C@H]4CC[C@H](C(=O)N5CCCC5)CC4)nc23)cc1Cl` returned an IC50 of more than 1 nM.

Compound `Nc1ncc2ncnc(Nc3ccc(F)c(Cl)c3)c2n1` returned an IC50 of more than 1 nM.

The compound `COC(=O)[C@H]1CC[C@H](Nc2ncc3ncnc(Nc4cc(Cl)c(N)c(Cl)c4)c3n2)CC1` yielded an IC50 of more than 10 nM.

Turning to `Nc1cc(Cl)c(Nc2ncnc3cnc(N[C@H]4CC[C@H](O)CC4)nc23)cc1Cl`, the IC50 is more than 10 nM.

As for `NCCCNc1ncc2ncnc(Nc3ccc(F)c(Cl)c3)c2n1`, the IC50 was more than 10 nM.

Turning to `NCCNc1ncc2ncnc(Nc3ccc(F)c(Cl)c3)c2n1`, the IC50 was more than 10 nM.

In turn, `Fc1ccc(Nc2ncnc3cnc(N4CCC(N5CCCC5)CC4)nc23)cc1Cl` came in with an IC50 of 10 nM.

Compound `CN1CCN(C2CCC(Nc3ncc4ncnc(Nc5ccc(F)c(Cl)c5)c4n3)CC2)CC1` (stereo not drawn) yielded an IC50 of more than 1 nM.

On to `N#CN1CCC(Nc2ncc3ncnc(Nc4ccc(F)c(Cl)c4)c3n2)CC1`, for which the IC50 is more than 1 nM.

As to `Nc1ccc(CNc2ncc3ncnc(Nc4ccc(F)c(Cl)c4)c3n2)cc1`, the IC50 was more than 10 nM.

The compound `CN1CCCN(c2ncc3ncnc(Nc4ccc(F)c(Cl)c4)c3n2)CC1` showed an IC50 of more than 10 nM.

For the compound `NCC1CCN(c2ncc3ncnc(Nc4ccc(F)c(Cl)c4)c3n2)CC1`, the IC50 was more than 1 nM.

`O=CNC1CCN(c2ncc3ncnc(Nc4ccc(F)c(Cl)c4)c3n2)CC1` yielded an IC50 of more than 10 nM.

The compound `CN1CCC(C2CCN(c3ncc4ncnc(Nc5ccc(F)c(Cl)c5)c4n3)CC2)CC1` registered an IC50 of more than 1 nM.

`Fc1ccc(Nc2ncnc3cnc(N4CCCCCC4)nc23)cc1Cl`: the IC50 is more than 1 nM.

The compound `CN1CCC(CNc2ncc3ncnc(Nc4ccc(F)c(Cl)c4)c3n2)CC1` came in with an IC50 of more than 1 nM.

The compound `OC1CCN(c2ncc3ncnc(Nc4ccc(F)c(Cl)c4)c3n2)CC1` had an IC50 of more than 1 nM.

The compound `CCN(CC)CC(C)Nc1ncc2ncnc(Nc3ccc(F)c(Cl)c3)c2n1` (stereo not drawn) had an IC50 of more than 1 nM.

`CC(C)(C)OC(=O)N1CCC(CNc2ncc3ncnc(Nc4ccc(F)c(Cl)c4)c3n2)CC1`: the IC50 was more than 20 nM.

In the case of `Fc1ccc(Nc2ncnc3cnc(N4CCCCC4)nc23)cc1Cl`, the IC50 was more than 1 nM.

Compound `Fc1ccc(Nc2ncnc3cnc(N4CCC(N5CCOCC5)CC4)nc23)cc1Cl` had an IC50 of more than 20 nM.

Take `Nc1c(Br)cc(Nc2ncnc3cnc(N4CCC(N)CC4)nc23)cc1Br`: the IC50 is more than 1 nM.

For `NC[C@H]1CC[C@H](Nc2ncc3ncnc(Nc4ccc(F)c(Cl)c4)c3n2)CC1`, the IC50 is more than 1 nM.

In turn, `CC1CC(c2ccc(O)cc2)CN1c1ncc2ncnc(Nc3ccc(F)c(Cl)c3)c2n1` (stereo not drawn) showed an IC50 of more than 1 nM.

The compound `O=C(N1CCOCC1)N1CCN(CCNc2ncc3ncnc(Nc4ccc(F)c(Cl)c4)c3n2)CC1` gave an IC50 of more than 1 nM.

`CC(C)(C)OC(=O)N1CCN(CCNc2ncc3ncnc(Nc4ccc(F)c(Cl)c4)c3n2)CC1` came in with an IC50 of more than 1 nM.

Turning to `Fc1ccc(Nc2ncnc3cnc(N4CCCNCC4)nc23)cc1Cl`, the IC50 is more than 10 nM.

On to `COc1ccccc1N1CCN(c2ncc3ncnc(Nc4ccc(F)c(Cl)c4)c3n2)CC1`, for which the IC50 is more than 20 nM.

The compound `Fc1ccc(Nc2ncnc3cnc(NCC45CCN(CC4)CC5)nc23)cc1Cl` yielded an IC50 of more than 1 nM.

Compound `COc1cccc(N2CCN(c3ncc4ncnc(Nc5ccc(F)c(Cl)c5)c4n3)CC2)c1` yielded an IC50 of more than 20 nM.

Compound `CC(C)(C)OC(=O)N1CCC(Nc2ncc3ncnc(Nc4ccc(F)c(Cl)c4)c3n2)CC1` displayed an IC50 of more than 10 nM.

As for `CC(C)(C)OC(=O)N1CCCC(Nc2ncc3ncnc(Nc4ccc(F)c(Cl)c4)c3n2)CC1` (stereo not drawn), the 50% inhibitory concentration (IC50) was more than 10 nM.

In turn, `O[C@H]1CC[C@H](Nc2ncc3ncnc(Nc4cccc(Oc5ccccc5)c4)c3n2)CC1` gave an IC50 of more than 10 nM.

On to `NCC1CCC(CNc2ncc3ncnc(Nc4ccc(F)c(Cl)c4)c3n2)CC1` (stereo not drawn), for which the IC50 was more than 1 nM.

Compound `COC(CNc1ncc2ncnc(Nc3ccc(F)c(Cl)c3)c2n1)OC` displayed an IC50 of more than 20 nM.

As to `Fc1ccc(Nc2ncnc3cnc(NC4CN5CCC4CC5)nc23)cc1Cl` (stereo not drawn), the IC50 was more than 10 nM.

With `CCN(CCO)c1ncc2ncnc(Nc3ccc(F)c(Cl)c3)c2n1`, the IC50 is more than 1 nM.

Turning to `NCC1CCCN(c2ncc3ncnc(Nc4ccc(F)c(Cl)c4)c3n2)C1` (stereo not drawn), the IC50 is more than 1 nM.
